# In the OPERA property sets (Mansouri et al. 2018):
# Where a SMILES comes first, the peptide text is derived from it. The star is where a group is joined. NHtBu = CC(C)(C)N*
# Conditions: not given
Compound,logP,solubility [mM]
CCCCCCN1CC(C(=O)OC)CC1=O (stereo not given),2.3,–
NC(N)=Nc1nc(CSCCC(N)=NS(N)(=O)=O)cs1,-0.64,–
NS(=O)(=O)c1cc2cc(CNCCF)sc2o1,0.34,–
CC(=O)OCn1ncc2c(O)ncnc21,-0.35,–
CC(=O)NC(C)C(=O)NC(CC(=O)O)C(=O)NC(C)(C)C (stereo not drawn) (Ac-Ala-Asp-NHtBu; configuration not given here),-0.74,–
CCCNc1nc(C)nc(C(Cl)(Cl)Cl)n1,3.29,–
Oc1ccc2c(c1)OCC1c3cc4c(cc3OC21)OCO4 (stereo not given),2.61,–
O=c1ccn(C2OC(CO)CC2F)c(=O)[nH]1 (stereo not given),-0.87,–
CC(=O)n1ncc2c(O)ncnc21,-0.35,–
Cc1cn([C@H]2CC[C@@H](CO)O2)c(=O)[nH]c1=S,0.44,–
CCOCCOCCO,-0.54,–
CCCN(C)N=O,0.56,–
OCc1ccccc1F,1.31,–
CCCCCCN1CCCC1=O,2.6,–
ClC=C1C2CC(C(Cl)C2(Cl)Cl)C1(CCl)CCl (stereo not given),5.2,–
CCCCOC(=O)c1ccccc1O,4.63,–
O=C1c2ccccc2C(=O)N1SC1CCCCC1,3.66,–
Cc1ccccc1OCCN(C)C,2.23,–
COCCOC(=O)C1=C(C)NC(C)=C(C(=O)OC(C)C)C1c1cccc([N+](=O)[O-])c1 (stereo not given),3.05,–
Clc1ccc(Cl)c(-c2cc(Cl)c(Cl)cc2Cl)c1,5.68,–
CC(C)COC(=O)n1c(-c2cscn2)nc2ccccc21,3.46,–
CCCc1oc(C)cc(=O)c1O,1.4,–

Compound,logP,solubility [mM]
CN1CCN(CCn2cncc2[N+](=O)[O-])CC1,-0.2,–
CCOC(=O)CCn1nc2ccccc2n1,2.12,–
CCOC(C(=O)OCc1ccccc1)C(C)C (stereo not given),3.29,–
CC(N)CCc1ccccc1 (stereo not given),2.12,–
Fc1ccc(Cn2cncn2)cc1,1.1,–
COC1=C(OC)C(=O)C=CC1=O,0.34,–
CN(C)CCCN1c2ccccc2Sc2ccccc21.Cl,2.94,–
Cc1ccc(C(C)C)c(Cl)c1Cl,5.5,–
CC(=O)/C=C/C1C(C)=CCCC1(C)C (stereo not given),–,0.551
C#CC(C)(C)NC(=O)c1cc(Cl)cc(Cl)c1,3.43,–
CCNc1nc(NCC)nc(SC)n1,2.8,–
Nc1nc(=O)n([C@@H]2CS[C@H](CO)O2)cc1F,-0.43,–
CCOC(=O)C1=C(C)NC(C)=C(C(=O)OC)C1c1cccc([N+](=O)[O-])c1 (stereo not given),2.88,–
CCN(CC)P(=O)(N(CC)CC)N1CCCC1,2.39,–
CCCCCOC(=O)c1cc(=O)[nH]c(=O)[nH]1,1.62,–
CC(CO)CO,0.24,–
CNC[C@H](O)c1ccc(O)c(O)c1,-1.2,–
N[C@@H](Cc1cnc[nH]1)C(=O)O,-3.32,–
CN(C)c1ccc(N=C=S)cc1,3.96,–
CC(O)(C(=O)O)c1ccccc1 (stereo not given),0.8,–
CC[C@H](C)[C@H](NC(=O)[C@@H](NC(=O)[C@@H](NC(C)=O)C(C)C)C(C)C)C(N)=O (Ac-Val-Val-Ile-NH2),0.49,–

# Same assay, conditions: 20 °C
row,Compound,solubility [mM]
1,ClC(Br)Br,12.5
2,CCC(Cl)Cl,23.9
3,ClCCOCCCl,120

# Same assay, conditions: 23.0 °C
row,Compound,log10 OH rate constant (cm³/molecule/s)
1,CCOCCOCCO,-10.2
2,CCCCOCC(C)O (stereo not given),-10.4

# Same assay, conditions: 24.0 °C
row,Compound,log10 OH rate constant (cm³/molecule/s)
1,C[Si](C)(C)C,-12

# Same assay, conditions: 25 °C
row,Compound,solubility [mM]
1,CCOC(C)=O,908
2,Brc1ccc(Br)c(-c2cc(Br)c(Br)cc2Br)c1,1.88e-07
3,O=C1OC(=O)c2ccccc21,41.9
4,CCCOC(=O)COc1ccc(Cl)cc1Cl,0.0562
5,CCF,44.9
6,CC(=O)N(C)N=O,170
7,ClCOCCl,191

# Same assay, conditions: 25.0 °C
row,Compound,log10 OH rate constant (cm³/molecule/s)
1,CCCCCC(C)=O,-10.9
2,FCOC(C(F)(F)F)C(F)(F)F,-13.1
3,O=C/C=C/C=O,-10.4
4,OCC(F)(F)C(F)(F)F,-13
5,COCOC,-11.3
6,FC(F)CC(F)(F)F,-14.1
7,CCCC(C)=O,-11.3
8,O=C(O)C(F)(F)F,-12.9

# Same assay, conditions: 27.0 °C
row,Compound,log10 OH rate constant (cm³/molecule/s)
1,Cc1ccco1,-10.2
